{"source": "patent US20180110742A1", "about": "“NMDA ANTAGONISTS FOR THE TREATMENT OF MENTAL DISORDERS WITH OCCURRENCE OF […]/OR IMPULSIVE BEHAVIOR” (ICM (INSTITUT DU CERVEAU ET DE LA MOELLE EPINIERE), priority 2015, published 2018)", "key": {"[1]": {"system": "rhesus monkeys", "assay": "Delayed saccade oculomotor paradigm (inhibition of premature saccades) after i.m. ketamine or saline", "assay_type": "in vivo, rhesus monkey", "excerpt": "FIG. 2 is a diagram showing the sequence of events. The trial started with the appearance of a fixation cross for a randomized duration followed by the appearance of two empty ‘boxes’, one at the center of the screen and at a 9-deg eccentric position. After the appearance of the two boxes, a target was flashed in the central one for 50 milliseconds. Extinction of the central target marked the beginning of the delay period that could last either 400, 900, 1400 or 1900 ms. At the end of the delay period, a target appeared for 50 ms in the eccentric box and the subject had to make a saccade to the eccentric box within a 400 ms grace period.\nThe experimental paradigm was designed to create a conflict between the urge to make a saccade to the peripheral box and the necessity to maintain fixation until the eccentric target appeared (FIG. 2). This required a strong inhibition of premature saccades before the appearance of the eccentric target.\nA total of 14104 saccades were analyzed in the three monkeys of the present study (L, S, Y). […] Positive values represent saccades occurring after target onset. We classified saccades as visually-guided for latencies longer than 100 ms. Latencies shorter than 100 ms represent premature (anticipatory) saccades. It can be observed that in the control condition (dashed curve on FIG. 3A), average saccadic latencies tended on average to decrease with increasing delay duration, more premature saccades occurring during long delays. […] However, a significant interaction between injected product (placebo or ketamine) and delay duration was found (F3; 6.012=8.195; P=0.015). […] Saccades in short delay trials (400 or 900 ms delays) were less affected than saccades when the delay was longer (1400 or 1900 ms). This influence of ketamine on movement latency was reproducible between monkeys.\nThree monkeys participated in the present study (referred to as L, S, Y). Apparatus\nSubjects sat in darkness, facing a CRT screen, which presented stimuli at a frequency of 60 Hz. An EyeLink 1000 infrared eye tracking system (SR Research, Mississauga, Ontario) was used to record movements of the right eye at 1 KHz. All experiments were run with homemade stimulus generation software based on a real time Linux kernel (Xenomaï). Stimulus display and oculomotor data collection were synchronized on a frame-by-frame basis. Saccades were detected offline in MATLAB (MathWorks, Natic, Mass.) with a velocity threshold of 30 deg/sec.\nEach trial started with an initial fixation period (referred to as ‘initial fixation’), with a small cross (0.7 deg) appearing on the CRT screen for a random duration (850±100 ms; see ‘X’ on FIG. 1). At the end of this random delay, two empty square ‘boxes’ appeared on the screen (1.4×1.4 deg), one in the center of the screen and one 9 deg eccentric, randomly to the right or to the left. […] Afterwards, a square target (1.4×1.4 deg) was flashed in the central box for 50 ms. Extinction of the initial target indicated to subjects the beginning of the delay period. Subjects were required to hold on fixation of the central box until another target (1.4×1.4 deg) was briefly presented for 50 ms in the eccentric box. In the variable fore period design, the delay period could take one of 4 different values with the same probability: 400 ms, 900 ms, 1400 ms and 1900 ms. In order to receive reward, subjects had to maintain fixation of the central box and wait for the appearance of the eccentric target. This required a strong inhibition of early saccades before the appearance of the eccentric target. Early saccades were not rewarded. This paradigm was designed to test inhibition during the delay period.\nEach experimental session started with a block of 200 trials before injection to measure the baseline saccadic latency on a day-by-day basis. On a randomly selected day ketamine (0.250 mg/kg) was injected i.m. or a placebo saline solution (NaCl 0.9%) of the same volume (0.3 ml). […]"}, "[2]": {"settings": "higher doses, e.g. 0.6 mg/kg; cited from earlier work"}, "[3]": {"system": "supplementary eye field (SEF) neurons", "assay": "Single-neuron recordings of saccade-related and fixation neurons during the saccade task", "assay_type": "in vivo, rhesus monkey", "settings": "0.25 mg/kg i.m.; for average neuronal activity of fixation units/neurons: delay and saccadic period, 0.25 mg/kg", "excerpt": "FIG. 9 is a graph showing the average neuronal activity (spike density) of 30 movement-related supplementary eye field (SEF) neurons during fixation (negative time), delay (between the two vertical dashed lines) and after saccade appearance (after the second dashed lined). Group data. A: delay duration: 400 ms. B: delay duration: 900 ms. C: delay duration: 1400 ms. D: delay duration: 1900 ms. […] This can be associated with the decrease of premature saccades.\nFIG. 10 is a graph showing the average neuronal activity of “fixation” units during fixation, delay and saccadic period. Group data. A: delay duration: 400 ms. B: delay duration: 900 ms. C: delay duration: 1400 ms. D: delay duration: 1900 ms. […] This could be related to the enhanced inhibition capacity and reduction of impulsive behavior observed.\nNeuronal activity of two animals was recorded on neurons with phasic discharge during the saccade (saccadic-relayed neurons, FIG. 9) and neurons with tonic activity when the eye is immobile (fixation neurons, FIG. 10). Average activity of 30 neurons is shown in the control condition (no ketamine) and after injection of 0.25 mg/kg ketamine i.m.\nOne male and one female rhesus monkey were used in this study. All procedures were approved by the Institutional Animal Care and Use Committee and were in compliance with the guidelines set forth in the United States Public Health Service Guide for the Care and Use of Laboratory Animals.\nA celux recording chamber (Crist Instruments, Hagerstown, Md.) was positioned at 24 mm anterior in Horsley-Clark stereotaxic coordinates and centered on the midline of the brain in both monkeys. At the completion of the surgeries, animals were returned to their home cages. Antibiotics and analgesics were administered as needed during the recovery period under the direction of a veterinarian.\nThe monkeys were seated in a primate chair with their head restrained for the duration of the testing sessions. They were trained to execute the behavioral task described above for liquid reward and were allowed to work to satiation. Records of each animal's weight and health status were kept, and supplemental water was given as necessary. The monkeys had their heads immobilized and were trained to pursue spots of light projected on a tangent screen in front of them.\nTo record neuronal activity, a single tungsten microelectrode (FHC, Bowdoinham, Me.) of approximately 6 MΩ impedance at 1 kHz was lowered into the cortex through the dura using a Narishige microdrive. The position of the electrode was determined using a grid system (Crist et al., 1988). Action potentials of single units were isolated using an on-line spike-sorting system that uses a template-matching algorithm (Plexon Inc). A pulse was generated each time an action potential was detected and stored with a 1 ms resolution.\nTo analyze the time course of neuronal activity, spike trains were convolved with a Gaussian probability density in steps of 1 ms to generate the spike-density function (Richmond et al., 1987). The SD of the Gaussian function was set to 20 ms. The average spike density in each experimental condition was computed from all trials in which subjects pursued the target until the end of its trajectory."}, "[4]": {"settings": "Total of monkeys L, S, Y, 0.25 mg/kg i.m."}}}
{"smiles": "CNC1(c2ccccc2Cl)CCCCC1=O", "note": "(stereo not drawn) [ketamine]", "values": [{"measurement": "spontaneous nystagmus or centripetal drift of the eye", "setting": "[1]; 0.25 mg/kg", "result": "did not evoke spontaneous nystagmus or centripetal drift of the eye"}, {"measurement": "latency variance", "setting": "[1]; 0.25 mg/kg i.m., as a function of delay duration", "result": "latency variance decreased"}, {"measurement": "reduction of premature saccades by delay duration", "setting": "[1]; 0.25 mg/kg i.m., delay durations 400-1900 ms", "result": "particularly strong for long delay durations (1400 ms and 1900 ms)"}, {"measurement": "saccadic latency as a function of delay duration", "setting": "[1]; 0.25 mg/kg i.m., delays 400, 900, 1400, 1900 ms, group data", "result": "prolonged saccadic latencies differently with increasing delay duration"}, {"measurement": "saccadic latency (all saccades)", "setting": "[1]; 0.25 mg/kg i.m., group data of three monkeys, two blocks of trials following injection", "result": "altered saccadic latency"}, {"measurement": "number of premature saccades", "setting": "[1]; 0.25 mg/kg i.m., group data, vs saline", "result": "strongly and significantly reduced"}, {"measurement": "average premature saccade latency", "setting": "[1]; 0.25 mg/kg i.m., saccades with latency <100 ms, group data", "result": "not affected"}, {"measurement": "Premature saccades (number)", "setting": "[1]; Monkey L, 0.25 mg/kg i.m.", "result": 408}, {"measurement": "Premature saccades (percentage of total)", "setting": "[1]; Monkey L, 0.25 mg/kg i.m.", "result": "(21%)"}, {"measurement": "Visually guided saccades (number)", "setting": "[1]; Monkey L, 0.25 mg/kg i.m.", "result": 1520}, {"measurement": "Visually guided saccades (percentage of total)", "setting": "[1]; Monkey L, 0.25 mg/kg i.m.", "result": "(79%"}, {"measurement": "saccade amplitude", "setting": "[1]; Monkey L, 0.25 mg/kg i.m., control 5.7±0.05 deg", "result": "5.2±0.05", "unit": "deg"}, {"measurement": "decrease of the proportion of valid trials", "setting": "[1]; Monkey L, after ketamine injection 0.25 mg/kg i.m.", "result": "~5", "unit": "%"}, {"measurement": "Premature saccades (number)", "setting": "[1]; Monkey S, 0.25 mg/kg i.m.", "result": 21}, {"measurement": "Premature saccades (percentage of total)", "setting": "[1]; Monkey S, 0.25 mg/kg i.m.", "result": "(7%)"}, {"measurement": "Visually guided saccades (number)", "setting": "[1]; Monkey S, 0.25 mg/kg i.m.", "result": 2939}, {"measurement": "Visually guided saccades (percentage of total)", "setting": "[1]; Monkey S, 0.25 mg/kg i.m.", "result": "(93%)"}, {"measurement": "increase of the proportion of valid trials", "setting": "[1]; Monkey S, after ketamine injection 0.25 mg/kg i.m.", "result": "~10", "unit": "%"}, {"measurement": "Premature saccades (number)", "setting": "[1]; Monkey Y, 0.25 mg/kg i.m.", "result": 150}, {"measurement": "Premature saccades (percentage of total)", "setting": "[1]; Monkey Y, 0.25 mg/kg i.m.", "result": "(6%)"}, {"measurement": "Visually guided saccades (number)", "setting": "[1]; Monkey Y, 0.25 mg/kg i.m.", "result": 2537}, {"measurement": "Visually guided saccades (percentage of total)", "setting": "[1]; Monkey Y, 0.25 mg/kg i.m.", "result": "(94%)"}, {"measurement": "saccade amplitude", "setting": "[1]; Monkey Y, 0.25 mg/kg i.m., control 5.7±0.03 deg", "result": "6.2±0.04", "unit": "deg"}, {"measurement": "proportion of valid trials", "setting": "[1]; Monkey Y, after ketamine injection 0.25 mg/kg i.m.", "result": "unchanged"}, {"measurement": "premature saccades after single injection (saccadic latency vs trial number)", "setting": "[1]; Monkey Y, single injection", "result": "sharp decrease of premature saccades"}, {"measurement": "trials after injection until the number of early anticipatory saccades was strongly reduced", "setting": "[1]; Monkey Y, single injection 0.25 mg/kg i.m.", "result": "Approximately 100 trials"}, {"measurement": "return of premature saccades frequency to control levels", "setting": "[1]; Monkey Y, single injection 0.25 mg/kg i.m., blocks of 200 trials", "result": "Only during the third block following injection"}, {"measurement": "trials until cumulated sums of latencies of control and ketamine diverged", "setting": "[1]; Monkeys Y and L, 13 injections, 0.25 mg/kg i.m.", "result": "approximately 75 trials"}, {"measurement": "Premature saccades (number)", "setting": "[1]; [4]", "result": 579}, {"measurement": "Visually guided saccades (number)", "setting": "[1]; [4]", "result": 6996}, {"measurement": "time for ketamine to affect saccade latency", "setting": "[1]; after the onset of the second block of trials, single trial 3300 ms on average", "result": "approximately 4 minutes"}, {"measurement": "average difference in the latency of visually-guided saccade between conditions", "setting": "[1]; ketamine 0.25 mg/kg i.m. vs saline, saccades with latency >100 ms, group data", "result": "approx. 10 ms"}, {"measurement": "saccade amplitude, group data", "setting": "[1]; monkeys L and Y, 0.25 mg/kg i.m., 0.25 mg/kg", "result": "did not reduce saccade amplitude"}, {"measurement": "saccade amplitude, group data", "setting": "[1]; monkeys L and Y, 0.25 mg/kg i.m., listed as Ketamine, 0.25 mg/kg", "result": "modestly reduced saccadic amplitude"}, {"measurement": "saccade amplitude changes", "setting": "[1]; monkeys L and Y, ketamine vs control", "result": "~10", "unit": "%"}, {"measurement": "proportion of valid trials, group level", "setting": "[1]; three monkeys, 0.25 mg/kg i.m.", "result": "did not statistically alter the proportion of valid trials"}, {"measurement": "spontaneous nystagmus or centripetal drift of the eye", "setting": "[2]", "result": "could be observed with higher doses"}, {"measurement": "activity of premotor saccadic neurons", "setting": "[3]; two animals", "result": "decreases the activity of premotor saccadic neurons"}, {"measurement": "average neuronal activity of movement-related SEF neurons after target appearance", "setting": "[3]; 30 neurons", "result": "reduces activity after target appearance"}, {"measurement": "average neuronal activity (spike density) of movement-related SEF neurons during the delay period", "setting": "[3]; 30 neurons, delays 400-1900 ms", "result": "reduces neuronal activity during the delay period"}, {"measurement": "average neuronal activity of fixation units/neurons", "setting": "[3]", "result": "increases the activity of fixation neurons"}, {"measurement": "average neuronal activity of fixation units/neurons", "setting": "[3]; listed as Ketamine", "result": "increased the fixation, delay and initial saccadic period"}]}
